According to ChEMBL document CHEMBL4828715, “Discovery, Structure-Activity Relationships, and In Vivo Evaluation of Novel Aryl Amides as Brain Penetrant Adaptor Protein 2-Associated Kinase 1 (AAK1) Inhibitors for the Treatment of Neuropathic Pain” (J Med Chem, 2021):
≈ marks a conversion by molar mass, not a printed value. Calls of active or inactive are those of the source. The calls are words filed in the database; no cut-off is given here.

What was measured:
[1] = Permeability of the compound across apical to basolateral membrane in human Caco-2 cells incubated for 2 hrs by LC-MS/MS analysis
[2] = target: AP2-associated protein kinase 1 (Mus musculus) (UniProt Q3UHJ0); experiment: In vivo inhibition of AAK1 in sc dosed C57BL6 mouse assessed as suppression of mu2 phosphorylation in brain lysate by Western blot analysis; format: functional, organism-based
AP2-associated protein kinase 1 (Mus musculus), sequence (Q3UHJ0 whole entry, looked up): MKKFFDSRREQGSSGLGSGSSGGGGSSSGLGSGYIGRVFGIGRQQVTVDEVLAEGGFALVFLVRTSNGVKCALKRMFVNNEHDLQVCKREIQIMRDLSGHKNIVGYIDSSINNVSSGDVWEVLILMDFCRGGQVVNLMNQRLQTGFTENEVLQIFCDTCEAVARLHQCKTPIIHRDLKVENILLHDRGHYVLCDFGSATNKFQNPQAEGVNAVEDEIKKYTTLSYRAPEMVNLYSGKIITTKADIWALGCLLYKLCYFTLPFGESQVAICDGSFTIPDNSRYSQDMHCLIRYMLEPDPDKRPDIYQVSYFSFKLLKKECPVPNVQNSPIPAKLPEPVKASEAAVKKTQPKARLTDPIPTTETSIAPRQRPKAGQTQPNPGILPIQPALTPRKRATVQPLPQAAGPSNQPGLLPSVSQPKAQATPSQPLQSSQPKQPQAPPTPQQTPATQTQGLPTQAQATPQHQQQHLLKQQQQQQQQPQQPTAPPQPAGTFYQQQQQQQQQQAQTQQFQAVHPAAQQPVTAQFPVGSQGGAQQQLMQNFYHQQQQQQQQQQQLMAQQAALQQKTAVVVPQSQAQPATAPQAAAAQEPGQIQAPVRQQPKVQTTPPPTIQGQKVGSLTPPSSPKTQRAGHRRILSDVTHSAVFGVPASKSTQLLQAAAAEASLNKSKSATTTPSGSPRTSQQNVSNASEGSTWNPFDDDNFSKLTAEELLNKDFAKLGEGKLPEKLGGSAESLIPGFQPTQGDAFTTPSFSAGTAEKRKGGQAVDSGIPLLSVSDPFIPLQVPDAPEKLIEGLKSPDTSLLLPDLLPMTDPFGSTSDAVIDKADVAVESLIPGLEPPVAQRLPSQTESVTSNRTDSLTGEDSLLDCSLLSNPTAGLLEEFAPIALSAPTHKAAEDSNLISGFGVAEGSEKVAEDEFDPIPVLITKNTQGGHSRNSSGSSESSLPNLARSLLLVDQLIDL

[3] = Metabolic stability in rat liver microsomes assessed as parent compound remaining at 0.5 uM incubated for 10 mins in presence of NADPH by LC-MS/MS analysis; format: ADME, Microsome; conditions: read-out: Stability
[4] = target: AP2-associated protein kinase 1 (Homo sapiens, UniProt Q2M2I8); experiment: Inhibition of human AAK1 expressed in HEK293 cells assessed as suppression of AP2 phosphorylation measured after 3 hrs by Western blot analysis; format: cell-based
AP2-associated protein kinase 1, sequence (Q2M2I8 whole entry): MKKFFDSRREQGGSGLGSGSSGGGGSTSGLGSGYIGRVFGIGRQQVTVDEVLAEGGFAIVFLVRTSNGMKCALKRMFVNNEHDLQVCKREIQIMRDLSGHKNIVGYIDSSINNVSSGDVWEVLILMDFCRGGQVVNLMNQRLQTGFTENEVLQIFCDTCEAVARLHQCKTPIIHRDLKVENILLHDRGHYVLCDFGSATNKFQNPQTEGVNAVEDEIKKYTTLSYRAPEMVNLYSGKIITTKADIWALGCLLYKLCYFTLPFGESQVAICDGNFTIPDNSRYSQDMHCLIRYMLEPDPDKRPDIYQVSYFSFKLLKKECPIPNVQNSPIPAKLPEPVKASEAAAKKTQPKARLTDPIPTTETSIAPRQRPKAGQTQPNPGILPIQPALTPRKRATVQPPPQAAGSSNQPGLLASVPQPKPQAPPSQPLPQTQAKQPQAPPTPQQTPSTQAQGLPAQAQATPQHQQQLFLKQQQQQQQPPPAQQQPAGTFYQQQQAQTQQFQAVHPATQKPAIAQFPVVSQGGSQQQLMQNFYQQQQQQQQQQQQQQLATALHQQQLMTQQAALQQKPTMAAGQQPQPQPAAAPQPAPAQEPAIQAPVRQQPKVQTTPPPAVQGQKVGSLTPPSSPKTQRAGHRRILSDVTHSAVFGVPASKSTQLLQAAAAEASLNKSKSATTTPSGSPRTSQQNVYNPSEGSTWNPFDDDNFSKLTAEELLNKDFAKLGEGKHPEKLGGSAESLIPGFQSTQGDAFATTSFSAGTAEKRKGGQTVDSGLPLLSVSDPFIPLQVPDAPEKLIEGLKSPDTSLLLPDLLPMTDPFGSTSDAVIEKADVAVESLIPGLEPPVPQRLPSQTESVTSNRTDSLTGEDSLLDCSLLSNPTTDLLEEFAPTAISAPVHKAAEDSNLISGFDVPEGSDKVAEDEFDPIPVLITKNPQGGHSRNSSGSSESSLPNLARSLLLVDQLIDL

[5] = Permeability of the compound at pH 5.5 incubated for 4 hrs by PAMPA-based UV spectrophotometry; format: ADME; conditions: read-out: permeability
[6] = Drug concentration in C57BL6 mouse at 10 ml/kg, sc measured after 2 hrs by LC-MS/MS analysis; format: ADME, organism-based; conditions: plasma
[7] = Aqueous solubility of the compound at pH 1; format: physicochemical
[8] = target: G protein-coupled receptor kinase 4 (Homo sapiens) (UniProt P32298); experiment: Inhibition of wild-type human full length GRK4 (M1 to C578 residues) expressed in bacterial expression system assessed as residual binding level at 1 uM by Kinomescan method relative to control
G protein-coupled receptor kinase 4 (Homo sapiens), sequence (P32298 whole entry, looked up, the tested form may be a part): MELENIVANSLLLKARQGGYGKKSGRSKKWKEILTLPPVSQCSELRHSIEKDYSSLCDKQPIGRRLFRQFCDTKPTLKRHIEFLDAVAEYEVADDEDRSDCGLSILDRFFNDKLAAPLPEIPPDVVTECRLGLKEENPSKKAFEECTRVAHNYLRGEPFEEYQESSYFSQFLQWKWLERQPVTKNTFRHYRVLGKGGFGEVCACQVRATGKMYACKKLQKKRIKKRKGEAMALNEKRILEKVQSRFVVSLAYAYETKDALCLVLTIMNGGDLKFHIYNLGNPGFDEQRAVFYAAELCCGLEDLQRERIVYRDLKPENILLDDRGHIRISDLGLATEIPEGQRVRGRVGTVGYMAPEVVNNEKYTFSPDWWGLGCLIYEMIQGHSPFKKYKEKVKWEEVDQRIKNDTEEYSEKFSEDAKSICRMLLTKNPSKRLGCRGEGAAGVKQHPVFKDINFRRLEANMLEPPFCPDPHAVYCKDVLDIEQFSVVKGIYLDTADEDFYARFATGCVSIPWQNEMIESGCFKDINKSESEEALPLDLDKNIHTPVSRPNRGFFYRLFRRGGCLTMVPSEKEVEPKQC

[9] = target: Serine/threonine-protein kinase haspin (Homo sapiens, UniProt Q8TF76); experiment: Inhibition of wild-type human partial length HASPIN (I452 to K798 residues) expressed in mammalian expression system by Kinomescan method relative to control
Serine/threonine-protein kinase haspin, sequence (Q8TF76 whole entry, the tested form may be a part): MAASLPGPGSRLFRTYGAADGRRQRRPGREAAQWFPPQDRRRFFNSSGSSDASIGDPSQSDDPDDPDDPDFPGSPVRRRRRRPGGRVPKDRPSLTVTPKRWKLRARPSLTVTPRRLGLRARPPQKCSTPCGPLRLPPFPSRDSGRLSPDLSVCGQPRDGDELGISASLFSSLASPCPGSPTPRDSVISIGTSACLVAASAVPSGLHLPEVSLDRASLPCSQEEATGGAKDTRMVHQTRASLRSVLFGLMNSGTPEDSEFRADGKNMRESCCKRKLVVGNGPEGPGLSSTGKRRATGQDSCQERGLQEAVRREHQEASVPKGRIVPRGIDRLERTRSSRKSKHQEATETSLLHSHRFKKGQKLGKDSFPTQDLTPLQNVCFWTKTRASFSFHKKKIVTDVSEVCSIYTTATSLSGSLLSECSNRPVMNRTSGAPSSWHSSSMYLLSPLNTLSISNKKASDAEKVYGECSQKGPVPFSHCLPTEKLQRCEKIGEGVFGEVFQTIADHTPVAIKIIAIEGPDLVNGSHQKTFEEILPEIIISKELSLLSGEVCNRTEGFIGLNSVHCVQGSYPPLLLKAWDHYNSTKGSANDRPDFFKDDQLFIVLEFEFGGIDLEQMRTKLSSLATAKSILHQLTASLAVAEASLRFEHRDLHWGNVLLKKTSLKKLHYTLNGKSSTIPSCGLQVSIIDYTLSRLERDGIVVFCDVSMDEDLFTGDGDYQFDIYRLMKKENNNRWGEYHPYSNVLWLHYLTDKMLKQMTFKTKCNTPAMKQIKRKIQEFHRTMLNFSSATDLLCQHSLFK

[10] = target: Protein kinase C theta type (Homo sapiens, UniProt Q04759); experiment: Inhibition of PKCtheta (unknown origin)
Protein kinase C theta type, sequence (Q04759 whole entry): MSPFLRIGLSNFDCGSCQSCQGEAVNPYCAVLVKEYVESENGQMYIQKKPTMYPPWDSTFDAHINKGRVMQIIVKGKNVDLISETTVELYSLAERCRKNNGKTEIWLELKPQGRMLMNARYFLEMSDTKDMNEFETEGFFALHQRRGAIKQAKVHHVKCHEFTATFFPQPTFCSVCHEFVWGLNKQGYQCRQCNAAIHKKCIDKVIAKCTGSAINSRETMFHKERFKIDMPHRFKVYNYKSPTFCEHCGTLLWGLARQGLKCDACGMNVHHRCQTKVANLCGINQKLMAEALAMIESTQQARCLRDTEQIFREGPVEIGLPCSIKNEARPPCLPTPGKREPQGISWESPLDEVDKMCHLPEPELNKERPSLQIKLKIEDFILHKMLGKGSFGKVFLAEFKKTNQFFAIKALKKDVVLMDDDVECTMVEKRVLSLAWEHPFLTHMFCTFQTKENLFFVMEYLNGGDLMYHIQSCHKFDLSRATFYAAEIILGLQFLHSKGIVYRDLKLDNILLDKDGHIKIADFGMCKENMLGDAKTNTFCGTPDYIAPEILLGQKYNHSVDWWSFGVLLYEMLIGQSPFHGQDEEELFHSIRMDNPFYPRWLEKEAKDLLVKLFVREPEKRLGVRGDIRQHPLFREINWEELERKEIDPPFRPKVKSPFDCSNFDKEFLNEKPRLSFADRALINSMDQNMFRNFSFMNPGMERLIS

[11] = target: Alpha-2A adrenergic receptor (Homo sapiens, UniProt P08913); experiment: Inhibition of alpha 2A adrenergic receptor (unknown origin)
[12] = target: Kappa-type opioid receptor (Homo sapiens, UniProt P41145); experiment: Inhibition of kappa opioid receptor (unknown origin)
Kappa-type opioid receptor, sequence (P41145 whole entry): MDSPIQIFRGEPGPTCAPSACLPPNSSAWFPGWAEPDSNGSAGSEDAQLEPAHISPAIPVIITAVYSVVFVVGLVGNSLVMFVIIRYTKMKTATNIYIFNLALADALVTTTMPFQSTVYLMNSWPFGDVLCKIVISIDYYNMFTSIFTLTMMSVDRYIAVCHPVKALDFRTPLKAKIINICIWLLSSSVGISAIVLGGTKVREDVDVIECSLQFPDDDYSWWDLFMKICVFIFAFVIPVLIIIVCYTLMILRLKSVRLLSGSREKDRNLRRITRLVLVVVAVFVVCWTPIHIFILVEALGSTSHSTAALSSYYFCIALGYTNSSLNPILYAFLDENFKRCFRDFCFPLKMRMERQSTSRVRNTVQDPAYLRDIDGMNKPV

[13] = target: Sodium-dependent serotonin transporter (Homo sapiens, UniProt P31645); experiment: Inhibition of SERT (unknown origin)
Sodium-dependent serotonin transporter, sequence (P31645 whole entry): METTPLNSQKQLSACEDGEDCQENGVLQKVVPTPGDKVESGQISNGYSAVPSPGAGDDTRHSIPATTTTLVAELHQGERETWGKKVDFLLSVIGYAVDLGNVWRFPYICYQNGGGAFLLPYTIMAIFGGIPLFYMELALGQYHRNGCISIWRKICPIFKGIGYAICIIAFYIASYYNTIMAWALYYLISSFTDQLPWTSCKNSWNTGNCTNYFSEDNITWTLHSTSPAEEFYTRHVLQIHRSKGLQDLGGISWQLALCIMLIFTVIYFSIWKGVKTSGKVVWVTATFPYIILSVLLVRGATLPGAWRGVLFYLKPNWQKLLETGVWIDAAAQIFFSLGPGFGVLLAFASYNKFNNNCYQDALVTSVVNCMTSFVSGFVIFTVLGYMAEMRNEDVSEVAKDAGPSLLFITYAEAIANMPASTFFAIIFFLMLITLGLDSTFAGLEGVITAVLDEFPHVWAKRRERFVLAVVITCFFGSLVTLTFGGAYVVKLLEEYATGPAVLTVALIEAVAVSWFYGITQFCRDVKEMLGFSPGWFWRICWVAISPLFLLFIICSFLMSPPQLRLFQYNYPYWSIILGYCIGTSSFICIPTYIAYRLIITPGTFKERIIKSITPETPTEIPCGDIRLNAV

[14] = target: AP2-associated protein kinase 1 (Mus musculus) (UniProt Q3UHJ0); experiment: In vivo inhibition of AAK1 in C57BL6 mouse assessed as suppression of mu2 phosphorylation in brain lysate at 10 mg/kg, sc measured after 30 mins by Western blot analysis relative to control; format: functional, organism-based
[15] = target: AP2-associated protein kinase 1 (Mus musculus) (UniProt Q3UHJ0); experiment: In vivo inhibition of AAK1 in C57BL6 mouse assessed as suppression of mu2 phosphorylation in brain lysate at 60 mg/kg, sc measured after 30 mins by Western blot analysis relative to control; format: functional, organism-based
[16] = target: AP2-associated protein kinase 1 (Mus musculus) (UniProt Q3UHJ0); experiment: In vivo inhibition of AAK1 in C57BL6 mouse assessed as suppression of mu2 phosphorylation in brain lysate at 30 mg/kg, sc measured; format: functional, organism-based
[17] = target: AP2-associated protein kinase 1 (Mus musculus) (UniProt Q3UHJ0); experiment: In vivo inhibition of AAK1 in C57BL6 mouse assessed as suppression of mu2 phosphorylation in brain lysate at 30 mg/kg, sc measured after 2 hrs by Western blot analysis; format: functional, organism-based
[18] = Drug concentration in plasma of C57BL6 mouse at 0.3 mg/kg, sc; format: ADME, organism-based; conditions: in vivo
Mus musculus [19] = experiment: Antinociceptive activity against formalin-induced nociceptive behavior in C57BL6 mouse assessed as reduction in phase 2 hind paw flinching at 30 mg/kg, sc administered 60 mins prior to formalin challenge by formalin test; format: functional, organism-based
Mus musculus [20] = experiment: Antinociceptive activity against formalin-induced nociceptive behavior in C57BL6 mouse assessed as reduction in phase 2 hind paw licking/biting at 10 mg/kg, sc administered 60 mins prior to formalin challenge by formalin test; format: functional, organism-based
Rattus norvegicus [21] = experiment: Antinociceptive activity in Sprague-Dawley rat model of chronic constriction injury-induced neuropathic pain assessed as reduction in paw withdrawal latency at 60 mg/kg, sc by Von Frey test; format: functional, organism-based
Rattus norvegicus [22] = experiment: Reversal of chronic constriction injury-induced cold allodynia in Sprague-Dawley rat model of neuropathic pain at 60 mg/kg, sc measured up to 180 mins relative to control; format: functional; conditions: time min <=180
Rattus norvegicus [23] = experiment: Reversal of chronic constriction injury-induced mechanical allodynia in Sprague-Dawley rat model of neuropathic pain at 60 mg/kg, sc measured up to 180 mins relative to control; format: functional; conditions: time min <=180
[24] = Ratio of drug concentration in brain to plasma of Sprague-Dawley rat model of chronic constriction injury-induced neuropathic pain at 60 mg/kg, sc measured after 240 mins; format: ADME, organism-based; conditions: read-out: BPR
[25] = Unbound brain-to-plasma concentration ratio in Sprague-Dawley rat model of chronic constriction injury-induced neuropathic pain at 60 mg/kg, sc measured after 240 mins; format: ADME, organism-based; conditions: read-out: K(p,uu,brain)
Rattus norvegicus [26] = experiment: Antinociceptive activity in Sprague-Dawley rat model of chronic constriction injury-induced neuropathic pain assessed as reduction in thermal hyperalgesia 30 mg/kg, sc by Von Frey test relative to control; format: functional; set-up: scale not given: the % may be the effect or the level left
Rattus norvegicus [27] = experiment: Antinociceptive activity in Sprague-Dawley rat model of chronic constriction injury-induced neuropathic pain assessed as reduction in thermal hyperalgesia 3 mg/kg, sc by Von Frey test relative to control; format: functional; set-up: scale not given: the % may be the effect or the level left
[28] = Drug concentration in plasma of Sprague-Dawley rat model of chronic constriction injury-induced neuropathic pain at 3 mg/kg, sc; format: ADME, organism-based; conditions: in vivo
[29] = Drug concentration in brain of Sprague-Dawley rat model of chronic constriction injury-induced neuropathic pain at 1 mg/kg, sc; format: ADME, organism-based; conditions: in vivo, read-out: Ct
[30] = Drug concentration in brain of Sprague-Dawley rat model of chronic constriction injury-induced neuropathic pain at 10 mg/kg, sc; format: ADME, organism-based; conditions: in vivo, read-out: Ct
[31] = Drug concentration in brain of Sprague-Dawley rat model of chronic constriction injury-induced neuropathic pain at 30 mg/kg, sc; format: ADME, organism-based; conditions: in vivo, read-out: Ct
[32] = Unbound drug concentration in plasma of Sprague-Dawley rat model of chronic constriction injury-induced neuropathic pain at 1 mg/kg, sc; format: ADME, organism-based; conditions: in vivo
[33] = Unbound drug concentration in plasma of Sprague-Dawley rat model of chronic constriction injury-induced neuropathic pain at 3 mg/kg, sc; format: ADME, organism-based; conditions: in vivo
[34] = Unbound drug concentration in plasma of Sprague-Dawley rat model of chronic constriction injury-induced neuropathic pain at 10 mg/kg, sc; format: ADME, organism-based; conditions: in vivo
[35] = Unbound drug concentration in plasma of Sprague-Dawley rat model of chronic constriction injury-induced neuropathic pain at 30 mg/kg, sc; format: ADME, organism-based; conditions: in vivo
[36] = Unbound drug concentration in brain of Sprague-Dawley rat model of chronic constriction injury-induced neuropathic pain at 1 mg/kg, sc; format: ADME, organism-based; conditions: in vivo
[37] = Unbound drug concentration in brain of Sprague-Dawley rat model of chronic constriction injury-induced neuropathic pain at 10 mg/kg, sc; format: ADME, organism-based; conditions: in vivo
[38] = Induction of motor coordination impairment in Sprague-Dawley rat at 60 mg/kg, sc measured up to 180 mins by rotarod test; format: organism-based; conditions: in vivo, 3 h
[39] = Drug concentration in Sprague-Dawley rat plasma at 30 mg/kg, sc measured after 190 mins; format: ADME, organism-based
[40] = Drug concentration in Sprague-Dawley rat plasma at 60 mg/kg, sc measured after 190 mins; format: ADME, organism-based

## CC(C)C[C@@H](N)C(=O)Nc1ccc(-c2cnco2)c(OC(F)F)c1
[1]
  Papp A→B at 2 h: 12.9 ×10⁻⁶ cm/s
[2]
  ED50: 6 mg/kg
[3]
  remaining at 10 min, 0.5 µM: 68%
[4]
  IC50: 0.051 µM
[5]
  Papp at 4 h: 91.8 ×10⁻⁶ cm/s
[6]
  concentration at 2 h: 17700 nM
[7]
  solubility: 5850 µg/mL (≈ 17.2 mM)
[8]
  Activity: 13%
[9]
  IC50: 0.922 µM
[10]
  IC50: 1.33 µM
[11]
  IC50: > 30 µM
[12]
  IC50: > 30 µM
[13]
  IC50: > 30 µM
[14]
  inhibition: 56%
[15]
  inhibition: 80%
[16]
  inhibition: Active
[17]
  inhibition: Active
[18]
  concentration: 400 nM
Mus musculus [19]
  Activity: Active
Mus musculus [20]
  Activity: Active
Rattus norvegicus [21]
  Activity: Active
Rattus norvegicus [22]
  Activity: 49%
Rattus norvegicus [23]
  Activity: 42%
[24]
  Kp at 4 h: 0.5
[25]
  Kp uu at 4 h: 0.7
Rattus norvegicus [26]
  Activity: 90%
Rattus norvegicus [27]
  Activity: 35%
[28]
  concentration: 1100 nM
[29]
  concentration: 350 nM
[30]
  concentration: 7000 nM
[31]
  concentration: 33000 nM
[32]
  Cp(f): 10 nM
[33]
  Cp(f): 20 nM
[34]
  Cp(f): 220 nM
[35]
  Cp(f): 1040 nM
[36]
  Drug uptake(free): 0.01 µM
[37]
  Drug uptake(free): 0.2 µM
[38]
  Activity: Non-Toxic
[39]
  concentration at 3.167 h: 3400 nM
[40]
  concentration at 3.167 h: 84000 nM
